Measured values: publication PMC10485887, “PET Evaluation of the Novel F-18 Labeled Reversible Radioligand [^18F]GEH200449 for Detection of Monoamine Oxidase-B in the Non-Human Primate Brain” (ACS Chemical Neuroscience, 2023)

How the values were obtained:
MAO-B [1] = format: in vivo, Macaca fascicularis; details: from pretreatment and displacement with reference competitors
Protocol: Each PET measurement was performed on a separate experimental day. Experiments conducted in the same NHP were separated by at least 6 weeks. Baseline PET measurements were initially undertaken in each of the five NHPs.
Time curves for regional [^18F]GEH200449 binding at baseline were analyzed by kinetic modeling using 1-TC and 2-TC models,[32] and VT as outcome measures. Akaike information criterion[33] and F statistics were applied to select the preferred model. Regional estimates of VT for [^18F]GEH200449 were also obtained using the Logan linear graphical method[34] with t* fixed at 40 min. The analyses were performed using the kinetic modeling tool in PMOD v. 4.3. Occupancy at [^18F]GEH200449 binding sites was estimated based on regional VT values obtained by the Logan method at baseline and after drug administration according to a graphical procedure described in the literature.[22]

MAO-B [2] = tested on: MAO-B; design: method as in PMID 33284012; details: autoradiography; cited from earlier work

In the case of `O=c1ccoc2ccc(OCc3ccc([18F])nc3)cc12` [[^18F]GEH200449], the “character of binding in the NHP brain” value (MAO-B [1]) is listed as “reversible and selective toward MAO-B”, the “binding in human brain tissue” value (MAO-B [2]) is listed as “specific binding to MAO-B” and the “non-specific binding in human brain tissue” value (MAO-B [2]) is listed as “low”.
